Common to all, as to type: functional
For test [1], the system named is Mycobacterium tuberculosis. In words: Antimycobacterial activity against multidrug-resistant Mycobacterium tuberculosis isolate 44 from Chinese tuberculosis patient measured 24 hrs post dose by microplate alamar blue assay. To be noted: isolate 44, 24 h.
Test [2] relates to Mycobacterium tuberculosis. In words: Antimycobacterial activity against multidrug-resistant Mycobacterium tuberculosis isolate 83 from Chinese tuberculosis patient measured 24 hrs post dose by microplate alamar blue assay. The following applies: isolate 83, 24 h.
In test [3] the test system is Mycobacterium tuberculosis. In words: Antimycobacterial activity against multidrug-resistant Mycobacterium tuberculosis isolate 164 from Chinese tuberculosis patient measured 24 hrs post dose by microplate alamar blue assay. The following applies: isolate 164, 24 h.
Test [4] has as its system Mycobacterium tuberculosis. The test is described as follows: Antimycobacterial activity against multidrug-resistant Mycobacterium tuberculosis isolate 431 from Chinese tuberculosis patient measured 24 hrs post dose by microplate alamar blue assay. To be noted: isolate 431, 24 h.
In test [5] the test system is Mycobacterium tuberculosis. In words: Antimycobacterial activity against multidrug-resistant Mycobacterium tuberculosis isolate 926 from Chinese tuberculosis patient measured 24 hrs post dose by microplate alamar blue assay. The following applies: isolate 926, 24 h.

Values after ≈ are worked out from the molar mass of the structure shown.

In the case of `CCCCCCCCc1c2[n+](cc3c(OC)c(OC)ccc13)CCc1cc3c(cc1-2)OCO3.[Cl-]`, the minimum inhibitory concentration (MIC) in test [1], in test [2], in test [3] and in test [4] was 4 µg/mL each time.
On to `CCCCCCCCc1c2[n+](cc3c(OC)c(OC)ccc13)CCc1cc(OCC)c(OCC)cc1-2.[Cl-]`, for which the minimum inhibitory concentration (MIC) in test [1], in test [2], in test [3] and in test [5] was 4 µg/mL in each case.
On to `NNC(=O)c1ccncc1` [ISONIAZID], for which the MIC in test [1] was found to be 4 µg/mL (≈ 29.2 µM); in test [2], 4 µg/mL (≈ 29.2 µM); in test [3], 4 µg/mL (≈ 29.2 µM); in test [4], 64 µg/mL (≈ 467 µM); in test [5], 32 µg/mL (≈ 233 µM).
In the case of `CO[C@H]1/C=C/O[C@@]2(C)Oc3c(C)c(O)c4c(O)c(c(/C=N/N5CCN(C)CC5)c(O)c4c3C2=O)NC(=O)/C(C)=C\C=C\[C@H](C)[C@H](O)[C@@H](C)[C@@H](O)[C@@H](C)[C@H](OC(C)=O)[C@@H]1C` [RIFAMPIN], the minimal inhibitory concentration (MIC) in test [1] was 64 µg/mL (≈ 77.8 µM); in test [2], above 64 µg/mL; in test [3], above 64 µg/mL; in test [4] it was above 64 µg/mL; in test [5], above 32 µg/mL.
For `CCCCCCCCc1c2[n+](cc3c(OCC)c(OC)ccc13)CCc1cc(OCC)c(OCC)cc1-2.[Cl-]`, the MIC was 0.25 µg/mL in test [1]; 0.5 µg/mL in test [2]; 0.125 µg/mL in test [3]; 0.5 µg/mL in test [4]; 0.125 µg/mL in test [5].
As to `CCCCCCCCc1c2[n+](cc3c(OCc4ccccc4)c(OC)ccc13)CCc1cc(OCc3ccccc3)c(O)cc1-2.[Cl-]`, the minimum inhibitory concentration (MIC) in test [1] amounted to 0.5 µg/mL; in test [2], 1 µg/mL; in test [3], 1 µg/mL; in test [4], 0.25 µg/mL; in test [5] it was 0.5 µg/mL.

The record behind these values is ChEMBL document CHEMBL2021893, “Synthesis, structure-activity relationship and in vitro anti-mycobacterial evaluation of 13-n-octylberberine derivatives” (2012).
